# Assay results reported in patent US4990499A, “Anti-herpes simplex virus activity of 5-alkoxymethyl-2'-deoxycytidimes and their 5-monophosphates” (priority 1989, dated 1991).
# System: HSV-1, KOS
# Assay: HSV-1 KOS infectivity (virus yield) in Vero cells after removal of drugs
# Assay type: cell-based, Herpes simplex virus type 1
# Conditions: for Virus Infectivity (% of virus control): after drug removal, combination with H4 dUrd 530 μM, 4320 min
# Experimental: Vero cells were infected with HSV-1, KOS strain and then samples of the infected cells were treated with MMdCyd in various quantities and with MMdCyd in various quantities together with 530 μM of H4 dUrd. Cells were washed twice with 0.4 ml of MEM to remove residual drug, overlaid with growth medium and incubated for 72 h. The virus was harvested by two cycles of freezing and thawing. The culture fluid from each treatment was pooled and assayed for virus yield.
# ^b H4 dUrd 530 μM (125 μg/ml) was added along with MMdCyd.
structure (smiles),measurement,setting,value
"COCc1cn([C@H]2C[C@H](O)[C@@H](CO)O2)c(=O)nc1N [MMdCyd, 5-methoxymethyl-2'-deoxycytidine]","effectiveness against the virus, conclusion",Example 8,effective against the virus
same,Virus Infectivity (% of virus control),MMdCyd 1.6 μM,100 % of virus control
same,Virus Infectivity (% of virus control),MMdCyd 3.2 μM,99 % of virus control
same,Virus Infectivity (% of virus control),MMdCyd 6.4 μM,99 % of virus control
same,Virus Infectivity (% of virus control),MMdCyd 12.8 μM,99 % of virus control
same,Virus Infectivity (% of virus control),MMdCyd 25.6 μM,99 % of virus control
same,Virus Infectivity (% of virus control),MMdCyd 51.2 μM,70 % of virus control
same,Virus Infectivity (% of virus control),MMdCyd 104 μM,55 % of virus control
same,Virus Infectivity (% of virus control),MMdCyd 208 μM,40 % of virus control
same,Virus Infectivity (% of virus control),MMdCyd 416 μM,20 % of virus control
same,Virus Infectivity (% of virus control),MMdCyd 832 μM,10 % of virus control
same,virus infectivity after washing of drugs,less than 26 μM MMdCyd,no decrease in virus infectivity
